Data: patent US11208412B2 (DAEGU-GYEONGBUK MEDICAL INNOVATION FOUNDATION, priority 2017, dated 2021)

Molecular target: T1, recombinant LRRK2 kinase (Homo sapiens, UniProt Q5S007)
T1 construct: purchased Signal Chem, Richmond, BC, Canada
Experiment: LRRK2 kinase inhibition (Kinase-Glo luminescence)
Format: biochemical
Conditions: IC50 grade; 25 μmol/L ATP, LRRKtide, 30° C. 2 hours; read-out: Enzyme activity LRRK2
Method: Upon completion of the reaction, an equal amount of Kinase-Glo (Promega, Madison, Wis.) solution was added thereto, followed by reaction for 40 minutes. A detection solution was added thereto, followed by further reaction at room temperature for 30 minutes. Then, IC50 of kinase was calculated by measuring the amount of luciferase using a microplate ELISA reader (Bio-Tek).

T1 sequence (Q5S007 whole entry): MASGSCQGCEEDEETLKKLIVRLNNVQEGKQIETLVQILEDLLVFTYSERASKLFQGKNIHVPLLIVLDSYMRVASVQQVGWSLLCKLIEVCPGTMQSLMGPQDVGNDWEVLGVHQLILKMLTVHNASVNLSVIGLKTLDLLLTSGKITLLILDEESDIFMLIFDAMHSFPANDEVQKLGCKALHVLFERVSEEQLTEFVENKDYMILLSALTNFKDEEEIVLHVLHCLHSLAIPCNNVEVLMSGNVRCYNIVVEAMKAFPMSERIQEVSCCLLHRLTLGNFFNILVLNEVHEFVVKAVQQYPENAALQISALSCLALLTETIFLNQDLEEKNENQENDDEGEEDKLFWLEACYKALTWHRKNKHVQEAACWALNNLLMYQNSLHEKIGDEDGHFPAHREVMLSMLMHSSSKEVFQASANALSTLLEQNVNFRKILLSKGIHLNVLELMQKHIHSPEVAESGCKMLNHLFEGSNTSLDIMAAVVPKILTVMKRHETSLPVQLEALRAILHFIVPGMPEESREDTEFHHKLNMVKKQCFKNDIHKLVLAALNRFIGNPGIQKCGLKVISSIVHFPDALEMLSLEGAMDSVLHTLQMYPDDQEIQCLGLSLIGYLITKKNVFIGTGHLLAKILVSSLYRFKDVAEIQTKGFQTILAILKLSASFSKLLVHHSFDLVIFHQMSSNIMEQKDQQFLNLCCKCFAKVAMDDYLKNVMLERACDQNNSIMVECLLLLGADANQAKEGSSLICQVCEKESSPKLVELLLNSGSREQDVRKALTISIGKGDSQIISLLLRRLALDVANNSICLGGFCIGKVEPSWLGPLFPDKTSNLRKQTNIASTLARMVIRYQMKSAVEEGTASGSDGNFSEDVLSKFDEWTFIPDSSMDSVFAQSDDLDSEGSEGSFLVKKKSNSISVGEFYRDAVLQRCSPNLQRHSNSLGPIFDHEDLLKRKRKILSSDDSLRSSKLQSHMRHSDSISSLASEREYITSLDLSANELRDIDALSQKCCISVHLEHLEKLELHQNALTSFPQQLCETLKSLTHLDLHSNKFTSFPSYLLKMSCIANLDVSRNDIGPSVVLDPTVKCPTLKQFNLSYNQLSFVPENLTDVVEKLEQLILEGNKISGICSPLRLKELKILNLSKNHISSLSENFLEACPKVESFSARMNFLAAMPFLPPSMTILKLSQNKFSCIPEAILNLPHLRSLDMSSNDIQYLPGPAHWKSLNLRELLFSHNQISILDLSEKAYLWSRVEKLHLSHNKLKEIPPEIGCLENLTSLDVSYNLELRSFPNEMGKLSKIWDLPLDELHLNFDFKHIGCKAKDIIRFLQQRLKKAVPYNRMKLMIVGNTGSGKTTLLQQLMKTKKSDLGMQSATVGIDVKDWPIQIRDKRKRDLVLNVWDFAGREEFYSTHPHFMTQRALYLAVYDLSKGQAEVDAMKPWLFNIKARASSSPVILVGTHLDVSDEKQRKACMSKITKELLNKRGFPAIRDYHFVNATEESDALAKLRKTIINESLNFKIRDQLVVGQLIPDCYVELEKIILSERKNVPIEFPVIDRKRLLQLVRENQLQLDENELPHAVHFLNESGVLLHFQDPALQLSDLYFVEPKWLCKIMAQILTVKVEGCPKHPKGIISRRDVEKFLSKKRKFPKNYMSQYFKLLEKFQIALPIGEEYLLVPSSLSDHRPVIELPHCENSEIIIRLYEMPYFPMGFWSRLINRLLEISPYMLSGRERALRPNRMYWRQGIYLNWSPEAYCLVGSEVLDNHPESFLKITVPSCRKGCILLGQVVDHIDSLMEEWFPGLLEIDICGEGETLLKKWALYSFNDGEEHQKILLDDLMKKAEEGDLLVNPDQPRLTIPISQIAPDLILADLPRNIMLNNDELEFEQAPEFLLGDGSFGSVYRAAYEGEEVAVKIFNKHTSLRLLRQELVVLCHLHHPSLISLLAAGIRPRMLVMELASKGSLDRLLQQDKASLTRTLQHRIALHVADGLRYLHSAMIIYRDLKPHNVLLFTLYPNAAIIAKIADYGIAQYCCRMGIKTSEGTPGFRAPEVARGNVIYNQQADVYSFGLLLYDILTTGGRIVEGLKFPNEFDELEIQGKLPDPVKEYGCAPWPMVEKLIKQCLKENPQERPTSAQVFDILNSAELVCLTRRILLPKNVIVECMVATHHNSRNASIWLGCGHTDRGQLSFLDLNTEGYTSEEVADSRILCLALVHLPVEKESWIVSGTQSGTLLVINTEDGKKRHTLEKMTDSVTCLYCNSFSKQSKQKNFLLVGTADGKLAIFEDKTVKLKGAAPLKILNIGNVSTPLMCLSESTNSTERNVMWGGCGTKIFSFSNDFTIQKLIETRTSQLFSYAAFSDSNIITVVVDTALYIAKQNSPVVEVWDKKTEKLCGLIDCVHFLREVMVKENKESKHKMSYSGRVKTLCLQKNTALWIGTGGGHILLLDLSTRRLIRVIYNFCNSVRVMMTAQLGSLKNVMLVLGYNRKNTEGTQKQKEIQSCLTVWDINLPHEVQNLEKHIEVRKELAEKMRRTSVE

`CCNc1nc(Nc2cnn([C@H]3CCN(C4COC4)C[C@@H]3F)c2Cl)nc2[nH]cc(C(F)(F)F)c12` [Example 102, N^2-(5-chloro-1-((3S,4S)-3-fluoro-1-(oxetane-3-yl)piperidine-4-yl)-1H-pyrazole-4-yl)-N^4-ethyl-5-(trifluoromethyl)-7H-pyrrolo[2,3-d]pyrimidine-2,4-diamine] was tested, and the IC50 was 10 to 100 nM.
With `CCNc1nc(Nc2ccc(C(=O)N3C[C@@H](C)O[C@@H](C)C3)cc2OC)nc2[nH]cc(C#N)c12` [Example 24, 2-((4-((2R,6S)-2,6-dimethylmorpholine-4-carbonyl)-2-methoxyphenyl)amino)-4-(ethylamino)-7H-pyrrolo[2,3-d]pyrimidine-5-carbonitrile] the IC50 was < 10 nM.
With `CCCNc1nc(Nc2cc(F)c(C(=O)N3CCC(N4CCOCC4)CC3)cc2OC)nc2[nH]cc(C#N)c12` [Example 15, 2-((5-fluoro-2-methoxy-4-(4-morpholinopiperidine-1-carbonyl)phenyl)amino)-4-(propylamino)-7H-pyrrolo[2,3-d]pyrimidine-5-carbonitrile] the IC50 was < 10 nM.
`Cc1nn(C(C)(C)C#N)cc1Nc1nc(OC2(C)CC2)c2c(C#N)c[nH]c2n1` [Example 94, 2-((1-(2-cyanopropane-2-yl)-3-methyl-1H-pyrazole-4-yl)amino)-4-(1-methylcyclopropoxy)-7H-pyrrolo[2,3-d]pyrimidine-5-carbonitrile] was tested, and the IC50 was < 10 nM.
`F[C@H]1CN(C2COC2)CC[C@@H]1n1ncc(Nc2nc(OC3CCOC3)c3c(C(F)(F)F)c[nH]c3n2)c1Cl` (stereo partly drawn) [Example 127] gave an IC50 of 10 to 100 nM.
With `Cc1c(Nc2nc(NC3(C)CC3)c3c(C#N)c[nH]c3n2)cnn1C` [Example 41, 2-((1,5-dimethyl-1H-pyrazole-4-yl)amino)-4-((1-methylcyclopropyl)amino)-7H-pyrrolo[2,3-d]pyrimidine-5-carbonitrile] the IC50 was < 10 nM.
`COc1cc(C(=O)N2CCC(N3CCOCC3)CC2)ccc1Nc1nc(OC2CCOC2)c2c(C#N)c[nH]c2n1` (stereo not drawn) [Example 87, 2-((2-methoxy-4-(4-morpholinopiperidine-1-carbonyl)phenyl)amino)-4-((tetrahydrofuran-3-yl)oxy)-7H-pyrrolo[2,3-d]pyrimidine-5-carbonitrile] was tested, and the IC50 was < 10 nM.
With `COc1cc(C(=O)NC2CCN(C)CC2)c(F)cc1Nc1nc(NC2(C)CC2)c2c(C#N)c[nH]c2n1` [Example 83, 4-((5-cyano-4-((1-methylcyclopropyl)amino)-7H-pyrrolo[2,3-d]pyrimidine-2-yl)amino)-2-fluoro-5-methoxy-N-(1-methylpiperidine-4-yl)benzamide] the IC50 was < 10 nM.
For `CCNc1nc(Nc2cn(C(C)(C)C#N)nc2C)nc2[nH]cc(C(F)(F)F)c12` [Example 103, 2-(4-((4-(ethylamino)-5-(trifluoromethyl)-7H-pyrrolo[2,3-d]pyrimidine-2-yl)amino)-3-methyl-1H-pyrazole-1-yl)-2-methylpropanenitrile], the IC50 was < 10 nM.
With `CCNc1nc(Nc2ccc(C(=O)N3CCC(N4CCOCC4)CC3)cc2OC)nc2[nH]cc(C#N)c12` [Example 8, 4-(ethylamino)-2-((2-methoxy-4-(4-morpholinopiperidine-1-carbonyl)phenyl)amino)-7H-pyrrolo[2,3-d]pyrimidine-5-carbonitrile] the IC50 was < 10 nM.
In the case of `CCCNc1nc(Nc2cc(F)c(C(=O)N3CCOCC3)cc2OC)nc2[nH]cc(C#N)c12` [Example 14, 2-((5-fluoro-2-methoxy-4-(morpholine-4-carbonyl)phenyl)amino)-4-(propylamino)-7H-pyrrolo[2,3-d]pyrimidine-5-carbonitrile], the IC50 is reported as 10 to 100 nM.
Work on `CNc1nc(Nc2ccc(C(=O)NC3CCN(C4COC4)CC3)cc2OC)nc2[nH]cc(C#N)c12` [Example 61, 4-((5-cyano-4-(methylamino)-7H-pyrrolo[2,3-d]pyrimidine-2-yl)amino)-3-methoxy-N-(1-(oxetane-3-yl)piperidine-4-yl)benzylamide] yielded an IC50 of 10 to 100 nM.
`COc1cc(C(=O)N2CCOCC2)c(F)cc1Nc1nc(O[C@H]2CCOC2)c2c(C#N)c[nH]c2n1` [Example 92, (S)-2-((5-fluoro-2-methoxy-4-(morpholine-4-carbonyl)phenyl)amino)-4-((tetrahydrofuran-3-yl)oxy)-7H-pyrrolo[2,3 d]pyrimidine-5-carbonitrile] was tested, and the IC50 was < 10 nM.
For `CCNc1nc(Nc2cc(F)c(C(=O)N3CCC(N4CCOCC4)CC3)cc2OC)nc2[nH]cc(C#N)c12` [Example 7, 4-(ethylamino)-2-((5-fluoro-2-methoxy-4-(4-morpholinopiperidine-1-carbonyl)phenyl)amino)-7H-pyrrolo[2,3-d]pyrimidine-5-carbonitrile], the IC50 was < 10 nM.
With `CCNc1nc(Nc2ccc(C(=O)N3CCOCC3)cc2OC)nc2[nH]cc(C(F)(F)F)c12` [Example 105, (4-((4-(ethylamino)-5-(trifluoromethyl)-7H-pyrrolo[2,3-d]pyrimidine-2-yl)amino)-3-methoxyphenyl)(morpholino)methanone] the IC50 was 10 to 100 nM.
Work on `CNc1nc(Nc2ccc(C(=O)N3CCOCC3)cc2OC)nc2[nH]cc(C(F)(F)F)c12` [Example 112, (3-methoxy-4-((4-(methylamino)-5-(trifluoromethyl)-7H-pyrrolo[2,3-d]pyrimidine-2-yl)amino)phenyl)(morpholino)methanone] yielded an IC50 of 10 to 100 nM.
In the case of `CCNc1nc(Nc2cc3c(cc2Cl)C(=O)N(C)C3)nc2[nH]cc(C#N)c12` [Example 128, 2-((6-chloro-2-methyl-1-oxoisoindol-5-yl)amino)-4-(ethylamino)-7H-pyrrolo[2,3-d]pyrimidine-5-carbonitrile], the IC50 is reported as > 100 nM.
Work on `COc1cc(C(=O)N2CCOCC2)ccc1Nc1nc(OC2CCOC2)c2c(C(F)(F)F)c[nH]c2n1` (stereo not drawn) [Example 124, (3-methoxy-4-((4-((tetrahydrofuran-3-yl)oxy)-5-(trifluoromethyl)-7H-pyrrolo[2,3-d]pyrimidine-2-yl)amino)phenyl)(morpholino)methanone] yielded an IC50 of 10 to 100 nM.
`CCNc1nc(Nc2cnn(C)c2)nc2[nH]cc(C#N)c12` [Example 4, 4-(ethylamino)-2-((1-methyl-1H-pyrazole-4-yl)amino)-7H-pyrrolo[2,3-d]pyrimidine-5-carbonitrile] was tested, and the IC50 was < 10 nM.
In the case of `CCNc1nc(Nc2cc3c(cc2OC)N(C)C(=O)C(C)(C)O3)nc2[nH]cc(C(F)(F)F)c12` [Example 137, 7-((4-(ethylamino)-5-(trifluoromethyl)-7H-pyrrolo[2,3-d]pyrimidine-2-yl)amino)-6-methoxy-2,2,4-trimethyl-2H-benzo[1,4]oxazine-3(4H)-one], the IC50 is reported as > 100 nM.
For `CCNc1nc(Nc2cc(F)c(C(=O)NC3CCN(C)CC3)cc2OC)nc2[nH]cc(C#N)c12` [Example 66, 4-((5-cyano-4-(ethylamino)-7H-pyrrolo[2,3-d]pyrimidine-2-yl)amino)-2-fluoro-5-methoxy-N-(1-methylpiperidine-4-yl)benzamide], the IC50 was 10 to 100 nM.
In the case of `Cc1nn(C(C)C)cc1Nc1nc(NC2(C)CC2)c2c(C#N)c[nH]c2n1` [Example 39, 2-((1-isopropyl-3-methyl-1H-pyrazole-4-yl)amino)-4-((1-methylcyclopropyl)amino)-7H-pyrrolo[2,3-d]pyrimidine-5-carbonitrile], the IC50 is reported as < 10 nM.
In the case of `CCNc1nc(Nc2ccc(C(=O)N3CCO[C@H](C)C3)cc2OC)nc2[nH]cc(C(F)(F)F)c12` [Example 108, (R)-(4-((4-(ethylamino)-5-(trifluoromethyl)-7H-pyrrolo[2,3-d]pyrimidine-2-yl)amino)-3-methoxyphenyl)(2-methylmorpholino)methanone], the IC50 is reported as 10 to 100 nM.
With `CC1(Oc2nc(Nc3cnn([C@H]4CCN(C5COC5)C[C@@H]4F)c3Cl)nc3[nH]cc(C#N)c23)CC1` [Example 96, 2-((5-chloro-1-((3S,4S)-3-fluoro-1-(oxetane-3-yl)piperidine-4-yl)-1H-pyrazole-4-yl)amino)(1-methylcyclopropoxy)-7H-pyrrolo[2,3-]pyrimidine-5-carbonitrile] the IC50 was < 10 nM.
Work on `COc1cc(C(=O)NC2CCN(C3COC3)CC2)c(F)cc1Nc1nc(NC2(C)CC2)c2c(C#N)c[nH]c2n1` [Example 81, 4-((5-cyano-4-((1-methylcyclopropyl)amino)-7H-pyrrolo[2,3-]pyrimidine-2-yl)amino)-2-fluoro-5-methoxy-N-(1-(oxetane-3-yl)piperidine-4-yl)benzamide] yielded an IC50 of 10 to 100 nM.
With `CNc1nc(Nc2cc(F)c(C(=O)NC3CCN(C4COC4)CC3)cc2OC)nc2[nH]cc(C#N)c12` [Example 63, 4-((5-cyano-4-(methylamino)-7H-pyrrolo[2,3-d]pyrimidine-2-yl)amino)-2-fluoro-5-methoxy-N-(1-(oxetane-3-pyrrolidine-1-yl)piperidine-4-yl)benzamide] the IC50 was < 10 nM.
With `CCNc1nc(Nc2ccc(C(=O)N3CCC(F)(F)CC3)cc2OC)nc2[nH]cc(C(F)(F)F)c12` [Example 110, (4,4-difluoropiperidine-1-yl)(4-((4-(ethylamino)-5-(trifluoromethyl)-7H-pyrrolo[2,3-d]pyrimidine-2-yl)amino)-3-methoxyphenyl)methanone] the IC50 was > 100 nM.
With `COc1cc(C(=O)N2CCOCC2)ccc1Nc1nc(NC2(C)CC2)c2c(C#N)c[nH]c2n1` [Example 36, 2-((2-methoxy-4-(morpholine-4-carbonyl)phenyl)amino)-4-((1-methylcyclopropyl)amino)-7H-pyrrolo[2,3-d]pyrimidine-5-carbonitrile] the IC50 was < 10 nM.
For `CCNc1nc(Nc2cc3c(cc2Cl)C(=O)N(C)C3)nc2[nH]cc(C(F)(F)F)c12` [Example 135, 6-chloro-5-((4-(ethylamino)-5-(trifluoromethyl)-7H-pyrrolo[2,3-d]pyrimidine-2-yl)amino)-2-methyl isoindolin-1-one], the IC50 was > 100 nM.
In the case of `CNc1nc(Nc2ccc(C(=O)N3CCO[C@@H](C)C3)cc2OC)nc2[nH]cc(C#N)c12` [Example 21, (S)-2-((2-methoxy-4-(2-methylmorpholine-4-carbonyl)phenyl)amino)-4-(methylamino)-7H-pyrrolo[2,3-d]pyrimidine-5-carbonitrile], the IC50 is reported as < 10 nM.
